Assay results published in article PMC6573034 (Nature Communications, 2019).

How the values were obtained:
[1] = system: MCT1 (SLC16A1); conditions: MCT1, L-lactate; cited from earlier work
[2] = target: T1, SfMCT (Syntrophobacter fumaroxidans, UniProt A0LNN5); assay: Uptake of [14C]L-lactate and other radiolabeled monocarboxylates into SfMCT expressing E. coli JA202; type: cell-based; conditions: for Net uptake of [14C]L-lactate through SfMCT (cpm): SfMCT minus vector
T1 construct: expressed in transfected cells; host or cells: E. coli JA202 (MC4100 glcA::cat lldP::kan), plasmid pEXT20-SfMCT-3C-10His
T1 sequence (A0LNN5 1-412): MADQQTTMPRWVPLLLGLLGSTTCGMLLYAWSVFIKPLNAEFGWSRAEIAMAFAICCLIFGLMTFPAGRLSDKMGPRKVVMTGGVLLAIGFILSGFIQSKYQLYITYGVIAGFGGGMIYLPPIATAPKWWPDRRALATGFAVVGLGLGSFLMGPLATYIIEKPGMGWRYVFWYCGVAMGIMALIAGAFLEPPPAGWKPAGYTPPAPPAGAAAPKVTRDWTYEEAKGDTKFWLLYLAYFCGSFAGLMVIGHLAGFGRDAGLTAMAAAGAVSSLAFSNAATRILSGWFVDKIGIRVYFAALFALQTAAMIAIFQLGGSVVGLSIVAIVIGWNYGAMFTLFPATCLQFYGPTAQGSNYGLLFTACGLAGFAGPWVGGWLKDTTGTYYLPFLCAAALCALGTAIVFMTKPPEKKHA

[3] = system: MCT3 (SLC16A8); conditions: MCT3, L-lactate; cited from earlier work
[4] = target: T1, SfMCT; assay: Uptake of [14C]L-lactate and other radiolabeled monocarboxylates into SfMCT expressing E. coli JA202; type: cell-based
Method: The cultures were grown at 37 °C and 180 r.p.m. in an incubator shaker (Multitron, Infors HT). Protein expression was induced at OD600 ~0.5 by addition of IPTG to a final concentration of 0.25 mM. After 4 h, bacteria were pelleted (5,200 × g, 10 min, room temperature) and resuspended in uptake buffer (20 mM Bis-Tris propane-HCl (pH 6.7), 250 mM KCl) to a bacteria density of OD600 12. […] Furthermore, [3-3 H] propionic acid sodium salt ([^3H]propionate, American Radiolabeled Chemicals, specific activity 30 Ci/mmol), n-[2,3-3 H] butyric acid sodium salt ([^3H]butyrate, American Radiolabeled Chemicals, specific activity 120 Ci/mmol), and [1–14 C] pyruvic acid sodium salt ([^14C]pyruvate, specific activity 0.055 Ci/mmol American Radiolabeled Chemicals) were also used for transport experiments. […] Uptake experiments were performed in 2 ml reaction tubes (Eppendorf) at 30 °C under agitation (1,000 r.p.m., Thermomixer compact, Eppendorf). […] Bacteria were immediately pelleted by centrifugation (21,000 × g, 4 min, room temperature) and washed two times with 900 μl stop buffer. Finally, bacteria were lyzed in 50 μl 5% (w/v) sodium dodecylsulfate and transferred into a white 96-well plate (Optiplate, PerkinElmer). 150 µl of scintillation cocktail (MicroScint 40, PerkinElmer) were added before measuring each reaction for 2 min with a scintillation counter (TopCount NXT, PerkinElmer). For data analysis, the signal of the empty vector was subtracted from the transporter signal. […] Cpm values of each experiment were normalized with respect to the determined upper plateau value, i.e., the fitted upper plateau value corresponds to 100%. The arithmetic average of three independent experiments was calculated. Three independent and normalized pH-dependence curves were then averaged. For data analysis Prism6 (GraphPad Software) was used. […] Equal amounts of bacteria expressing SfMCT variants were loaded on 14% SDS/polyacrylamide gels. His-tagged transporters were detected using an anti-His5 (Qiagen, catalogue number 34660, primary antibody) at a dilution of 1:3,000 and a goat anti-mouse IgG (H + L) HRP conjugate antibody (Biorad, catalogue number 172-1011, secondary antibody) at a dilution of 1:2,500.

[5] = target: T1, SfMCT; assay: Micro pH electrode-based transport assay, SfMCT-expressing E. coli JA202; type: cell-based; conditions: 10 mM compound (pH 6.5) added to bacterial suspension pH 6.7
Method: (§1) A measuring set up as previously reported[18] was used for micro pH electrode-based transport measurements. SfMCT was expressed in E. coli JA202 (MC4100 glcA::cat lldP::kan)[15] as described for uptake experiments. After expression, bacteria were pelleted (5,200 × g, 10 min, room temperature), washed twice in assay solution (250 mM KCl, 1 mM MgSO4, 2 mM CaCl2; 5,200 × g, 10 min, room temperature) and finally resuspended in assay solution to a bacterial density of OD600 15. Compounds that were assayed for proton-coupled transport were dissolved in assay solution and the pH was adjusted to 6.5. 800 µl of bacteria suspension were transferred into a 2 ml reaction tube (Eppendorf) and the pH value of the bacterial suspension (extracellular medium) was measured using a micro pH electrode with integrated temperature sensor (InLab Micro Pro, Mettler Toledo) under constant stirring. The pH of the bacterial suspension was adjusted to pH 6.7 using potassium hydroxide and hydrochloric acid. The SevenCompact pH-meter (Mettler Toledo), together with LabX direct pH 2.3 software (Mettler Toledo), were used for automatic recording in 15 s intervals. Measurements were initiated by adding 10 mM of the corresponding compound to the bacterial suspension. All experiments were performed at 24 °C.

[6] = system: MCT2 (SLC16A7); conditions: MCT2, L-lactate; cited from earlier work
[7] = system: vector-transformed E. coli JA202; assay: Micro pH electrode-based transport assay, vector-transformed E. coli JA202; type: cell-based; conditions: 10 mM compound (pH 6.5) added to vector-transformed bacterial suspension pH 6.7
Method: as §1

SMILES: C[C@H](O)C(=O)O [L-lactate]
- Km [1]: 3 to 5 mM
- Uptake of [14C]L-lactate by SfMCT (cpm) ([2]; Time 5 min): 1353.33 cpm
- Net uptake of [14C]L-lactate through SfMCT (cpm) ([2]; Time 5 min): 969 cpm
- Uptake of [14C]L-lactate by SfMCT (cpm) ([2]; Time 10 min): 2978.67 cpm
- Net uptake of [14C]L-lactate through SfMCT (cpm) ([2]; Time 10 min): 2373.33 cpm
- Uptake of [14C]L-lactate by SfMCT (cpm) ([2]; Time 20 min): 6015 cpm
- Net uptake of [14C]L-lactate through SfMCT (cpm) ([2]; Time 20 min): 4812 cpm
- Uptake of [14C]L-lactate by SfMCT (cpm) ([2]; Time 40 min): 11074.3 cpm
- Net uptake of [14C]L-lactate through SfMCT (cpm) ([2]; Time 40 min): 8600.33 cpm
- Uptake of [14C]L-lactate by SfMCT (cpm) ([2]; Time 50 min): 12325 cpm
- Net uptake of [14C]L-lactate through SfMCT (cpm) ([2]; Time 50 min): 9196.33 cpm
- Uptake of [14C]L-lactate by SfMCT (cpm) ([2]; Time 60 min): 13920.3 cpm
- Net uptake of [14C]L-lactate through SfMCT (cpm) ([2]; Time 60 min): 9981.67 cpm
- Uptake of [14C]L-lactate by SfMCT (cpm) ([2]; Time 75 min): 16014.3 cpm
- Net uptake of [14C]L-lactate through SfMCT (cpm) ([2]; Time 75 min): 10856.3 cpm
- Uptake of [14C]L-lactate by SfMCT (cpm) ([2]; Time 90 min): 17840 cpm
- Net uptake of [14C]L-lactate through SfMCT (cpm) ([2]; Time 90 min): 10528.3 cpm
- Uptake of [14C]L-lactate ([2]; [L-lactate] 10 µM): 8.303 pmol
- Uptake of [14C]L-lactate ([2]; [L-lactate] 50 µM): 59.1431 pmol
- Uptake of [14C]L-lactate ([2]; [L-lactate] 100 µM): 109.881 pmol
- Uptake of [14C]L-lactate ([2]; [L-lactate] 175 µM): 163.284 pmol
- Uptake of [14C]L-lactate ([2]; [L-lactate] 250 µM): 201.312 pmol
- Uptake of [14C]L-lactate ([2]; [L-lactate] 625 µM): 266.195 pmol
- Km [3]: ~6 mM
- Uptake of radioligand by SfMCT (cpm) ([4]; 0.1 µCi radiolabeled monocarboxylate, SfMCT-overexpressing bacteria): 10963 cpm
- Uptake of [14C]L-lactate by SfMCT (cpm) ([4]; Time 30 min): 8927.33 cpm
- Net uptake of [14C]L-lactate through SfMCT (cpm) ([4]; Time 30 min, SfMCT minus vector): 7196.33 cpm
- Uptake of [14C]L-lactate ([4]; [L-lactate] 500 µM): 253.382 pmol
- Uptake of [14C]L-lactate ([4]; [L-lactate] 750 µM): 287.925 pmol
- proton-coupled transport, change of extracellular pH (in words) [5]: immediate pH increase
- Km [6]: ~0.7 mM
- proton-coupled transport, change of extracellular pH (in words) [7]: significantly slower and lower pH increase
